Measured values as given in ChEMBL document CHEMBL1212844, “Synthesis and biological evaluation of naphthoquinone analogs as a novel class of proteasome inhibitors” (Bioorg Med Chem, 2010).

Key:
[1] = Inhibition of trypsin like proteolytic activity of rabbit 26S proteasome; parameters: species or system Oryctolagus cuniculus
[2] = Inhibition of PGPH activity of rabbit 26S proteasome; parameters: species or system Oryctolagus cuniculus
[3] = Inhibition of chymotrypsin like proteolytic activity of rabbit 26S proteasome; parameters: species or system Oryctolagus cuniculus
[4] = Dissociation constant, pKa of the compound; type: physicochemical
[5] = Inhibition of calpain
[6] = Inhibition of 26S proteasome-mediated chymotrypsin like proteolytic activity in human MCF7 cells; type: cell-based

| Structure (SMILES) | IC50 [1] | IC50 [2] | IC50 [3] | pKa [4] | IC50 [5] | IC50 [6] |
| --- | --- | --- | --- | --- | --- | --- |
| COc1cccc(NS(=O)(=O)c2ccc(NC3=C(Cl)C(=O)c4ccccc4C3=O)cc2)c1 | 24.6 µM | 43.5 µM | 17 µM |  |  |  |
| COc1ccccc1NS(=O)(=O)c1ccc(NC2=C(Cl)C(=O)c3ccccc3C2=O)cc1 | 24.7 µM | 49.2 µM | 20.8 µM |  |  |  |
| Cc1cc(C)nc(NS(=O)(=O)c2ccc(NC3=C(Cl)C(=O)c4ccccc4C3=O)cc2)n1 | 20.9 µM | 50.2 µM | 19 µM | < 7.91 |  |  |
| Cc1cccc(NS(=O)(=O)c2ccc(NC3=C(Cl)C(=O)c4ccccc4C3=O)cc2)c1 | 55 µM | > 100 µM | 20.8 µM |  |  |  |
| COc1cc(NC2=C(Cl)C(=O)c3ccccc3C2=O)ccc1S(=O)(=O)Nc1ccccc1C | 24.3 µM | 30 µM | 13.7 µM |  |  |  |
| COc1ccc(NS(=O)(=O)c2ccc(NC3=C(Cl)C(=O)c4ccccc4C3=O)cc2OC)cc1 | 23.3 µM | 35 µM | 15.3 µM |  |  |  |

More lines, now with the values ahead:

| IC50 [1] | IC50 [2] | IC50 [3] | pKa [4] | IC50 [5] | IC50 [6] | Structure (SMILES) |
| --- | --- | --- | --- | --- | --- | --- |
| 20.7 µM | 25.6 µM | 16.3 µM | < 7.91 |  |  | O=C1C(Cl)=C(Nc2ccc(S(=O)(=O)Nc3ccnn3-c3ccccc3)cc2)C(=O)c2ccccc21 |
| 8.15 µM | 14.3 µM | 3.3 µM | < 7.91 |  |  | O=C1C(Cl)=C(Nc2ccc(S(=O)(=O)Nc3nccs3)cc2)C(=O)c2ccccc21 |
| 9.25 µM | 21.2 µM | 3.9 µM | < 7.91 |  |  | Cc1noc(NS(=O)(=O)c2ccc(NC3=C(Cl)C(=O)c4ccccc4C3=O)cc2)c1C |
| 7 µM | 0.48 µM |  |  |  |  | CC(C)C[C@H](NC(=O)[C@H](Cc1ccccc1)NC(=O)c1cnccn1)B(O)O [BORTEZOMIB] |
| 13.2 µM | 16.7 µM | 11.2 µM | < 7.91 |  |  | Cc1cc(NS(=O)(=O)c2ccc(NC3=C(Cl)C(=O)c4ccccc4C3=O)cc2)no1 |
| 4.5 µM | 4.5 µM | 1 µM |  | > 30 µM | 6 µM | O=C1C(Cl)=C(Nc2ccc(S(=O)(=O)Nc3ccccn3)cc2)C(=O)c2ccccc21 |
| 10.7 µM | 13.4 µM | 6.4 µM | < 7.91 |  |  | Cc1nnc(NS(=O)(=O)c2ccc(NC3=C(Cl)C(=O)c4ccccc4C3=O)cc2)s1 |
